Assay results reported in US20230293488A1, “COMPOSITIONS AND METHODS OF USE OF ANTIBACTERIAL DRUG COMBINATIONS” (priority 2015, published 2023).
“Also recorded” adds a separate entry of the source. Like-named read-outs stand apart in the source and are kept apart here.

Experiments:
[1] = tested on: MRSA COL pbp2a/mecA antisense (AS) strain; assay: Xylose-inducible antisense-RNA strain susceptibility (PBP2a repression); format: cell-based, Staphylococcus aureus; settings: targeted repression of PBP2a
Source text: (§1) We confirmed the targets of the constituents of ME/PI/TZ by reducing the expression of PBP1, PBP2, PBP2a or PBP3 using a xylose-inducible antisense-RNA strategy in the MRSA COL strain background^49. When expression levels of PBP2a were attenuated, the strain behaved as a methicillin-susceptible S. aureus and was sensitized to all tested β-lactams (FIG. 6A-C).

[2] = tested on: MRSA N315; assay: Adaptation and cross-resistance assays (11-day passage); format: cell-based, Staphylococcus aureus
Experimental: Adaptation and Cross-resistance Assays: 414 MRSA N315 was grown in 150 μl/well of CAMHB with constant shaking at 37° C. and passaged over 11 days in identical 96-well plates containing replicate threefold dilutions of ME/PI/TZ, ME/PI, ME/TZ, PI/TZ, ME, PI, and TZ. Top concentrations of drug combinations were 33.3 μg/ml for each component, while top concentrations for single drugs was 100 μg/ml. To test for cell viability, at the end of the assay on day 11, all wells from the plate were pinned with a sterile 96-pin replicator and transferred to CAMHB only. After passage, plates were filled 1:1 with 30% CAMHB/glycerol and frozen at −80° C. for later analysis.
Growth rate of isolates over passages in each condition was determined by linear best-fit of logarithm-converted exponential growth phase. […] Adapted isolates were retrospectively chosen from each combination or single compound in wells showing an increase in MIC or growth rate, frozen isolates were streaked out on agar plates to obtain single colonies, re-grown in broth conditions identical to those in which they grew originally, and then re-inoculated in sterile 96-well plates identical to the original 11-day 431 plates.

[3] = tested on: MRSA N315; assay: MIC assay and FICI synergy determination (checkerboard); format: cell-based, Staphylococcus aureus; settings: Staphylococcus aureus, MRSA; single compounds; read-out: MIC in MRSA N315
Experimental: Microbiological Studies: MRSA N315 was a gift from Dr. Steven Gill, University of Rochester, Rochester, NY, USA. S. aureus ATCC 29213 was acquired from the American Type Culture Collection. De-identified clinical MRSA isolates were selected at random from the clinical isolate strain bank at Barnes-Jewish Hospital, St. Louis, MO, USA. Minimal inhibitory concentration (MIC) assays for inhibition of growth were performed following the recommendations of the Clinical and Laboratory Standards Institute (CLSI)^43. Briefly, 23 antibacterial compounds (Supplemental Table 1) were selected based on coverage of all major drug classes, including three compounds not classified as antibiotics for human use, but with known antibacterial properties. Compounds were dissolved in dimethyl sulfoxide (DMSO) to a stock concentration of 50 mg/ml. Exceptions: Sulfometuron at 20 mg/ml in DMSO; Tobramycin, D-cycloserine, and colistin at 50 mg/ml in H2O and filtered at 2 μm. The 23 compounds were formulated into all 253 possible unique pairwise combinations at fixed ratios and at 100× concentrations in solvent. To increase the range of concentrations assayed for possible synergistic or antagonistic drug interactions (>2,000-fold), the drug stocks were arrayed into threefold dilution series down eight rows in 96-well Costar master drug plates, using a BioMek FX robotic liquid handler (Beckman Coulter, Inc.). Drugs were then mixed 1:100 into 96-well plates containing 200 μl/well of cation-adjusted Mueller-Hinton broth (CAMHB). All drug susceptibility assay wells were inoculated with ˜1 μl of mid-log phase bacterial culture at 0.5 McFarland standard (˜2×10^8 CFU/ml) and grown at 37° C. for 24 h. Endpoint growth at 37° C. after 24 h was determined by optical density at 600 nm ≥0.1 using a Synergy H1 reader (BioTek, Inc.).
Synergy of antibiotic combinations was determined using the fractional inhibitory concentration index (FICI) method ^57,58. By this method, the MIC of the antibiotic compound in combination is divided by the MIC of the compound alone, yielding the fractional contribution of each drug component in the combination. Quotients for all in a combination are summed and drug interactions scored using the formula: FICI=(MIC Acomb A B C)/MICagent A+(MIC Bcomb A B C)/MICagent B+(MIC Ccomb A B C)/MICagentC Select pairwise combinations against MRSA were then combined with each of the 21 remaining single drugs to make triple combinations, formulated and tested in identical fashion to the double combinations. Synergy of combinations was confirmed via triplicate measurements of drug conditions at the MIC. Based on its high synergy against MRSA N315 in the sparse screening, ME/PI/TZ and its constituents were selected for further characterization. Final susceptibility testing of ME/PI/TZ and its components was performed using twofold dilution from 128 to 2 μg/ml for each component

[4] = tested on: MRSA COL pbp2 antisense (AS) strain; assay: Xylose-inducible antisense-RNA strain susceptibility (PBP2 repression); format: cell-based, Staphylococcus aureus; settings: targeted repression of PBP2
Source text: as §1

[5] = in vivo, iv; cited from earlier work
[6] = molecular target: allosteric site of PBP2a (Staphylococcus aureus, UniProt P07944); assay: Binding to the allosteric site of PBP2a
Sequence of allosteric site of PBP2a (P07944 whole entry): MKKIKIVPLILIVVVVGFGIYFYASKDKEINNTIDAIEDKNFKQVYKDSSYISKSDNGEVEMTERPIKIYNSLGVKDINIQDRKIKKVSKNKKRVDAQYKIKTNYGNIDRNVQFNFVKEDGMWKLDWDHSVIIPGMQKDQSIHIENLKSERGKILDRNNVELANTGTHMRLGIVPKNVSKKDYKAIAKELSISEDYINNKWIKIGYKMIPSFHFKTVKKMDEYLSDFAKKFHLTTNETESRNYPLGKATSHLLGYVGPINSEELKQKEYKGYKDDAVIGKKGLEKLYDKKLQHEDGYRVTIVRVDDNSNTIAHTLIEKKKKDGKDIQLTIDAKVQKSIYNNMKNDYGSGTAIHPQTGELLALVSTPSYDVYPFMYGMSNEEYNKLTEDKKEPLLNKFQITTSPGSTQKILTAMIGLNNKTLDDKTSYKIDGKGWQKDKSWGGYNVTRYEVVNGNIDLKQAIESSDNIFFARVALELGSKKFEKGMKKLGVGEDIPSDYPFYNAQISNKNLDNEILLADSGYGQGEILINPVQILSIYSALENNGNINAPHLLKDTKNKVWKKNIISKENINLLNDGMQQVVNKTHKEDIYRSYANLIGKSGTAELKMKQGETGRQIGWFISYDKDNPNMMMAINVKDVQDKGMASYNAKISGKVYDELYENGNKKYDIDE

Row | SMILES | susceptibility under xylose induction [1] | collateral effect on susceptibility ([2]; MRSA N315 after prior exposure to ME/TZ) | collateral effect on susceptibility ([2]; MRSA N315 after prior exposure to tazobactam) | collateral effect on susceptibility ([2]; MRSA N315 after prior exposure/adaptation to meropenem) | MIC [3] [µg/mL] | susceptibility under xylose induction [4] | collateral effect on susceptibility ([2]; MRSA N315 after prior exposure to PI/TZ) | collateral effect on susceptibility ([2]; MRSA N315 after prior exposure/adaptation to piperacillin) | mean peak plasma concentration [5] [µg/mL] | Kd ([6]; read-out: dissociation constant (Kd)) [µM] | Kd ([6]; read-out: dissociation constant (Kd), equivalent (converted)) [µM]
1 | CCN1CCN(C(=O)N[C@@H](C(=O)N[C@@H]2C(=O)N3[C@@H]2SC(C)(C)[C@@H]3C(=O)O)c2ccccc2)C(=O)C1=O [Piperacillin] | Increased susceptibility | strong reciprocal collateral sensitivity | Collateral sensitivity | strong reciprocal collateral sensitivity | 64 | increased susceptibility; also recorded: increased effectiveness | – | – | – | – | –
2 | C[C@@H](O)[C@H]1C(=O)N2C(C(=O)O)=C(S[C@@H]3CN[C@H](C(=O)N(C)C)C3)[C@H](C)[C@H]12 [Meropenem] | increased susceptibility | – | – | – | 16 | increased susceptibility; also recorded: increased effectiveness | sensitized | sensitizes; also recorded: strong reciprocal collateral sensitivity | 112 | 270 ± 80 | 271
